Key:
[1] = biological target: DNA (cytosine-5)-methyltransferase 3B (Homo sapiens, UniProt Q9UBC3); experiment: Inhibition of His6-tagged human recombinant DNMT3b expressed in insect Sf9 cells assessed as reduction in DNA methyltransferase activity using 5'-biotinylated 45-bp unmethylated or hemimethylated oligonucleotide substrates and [3H]-AdoMet by liquid scintillation counting method
[2] = biological target: DNA (cytosine-5)-methyltransferase 3A (Homo sapiens, UniProt Q9Y6K1); experiment: Inhibition of His6-tagged human recombinant DNMT3a expressed in insect Sf9 cells assessed as reduction in DNA methyltransferase activity using 5'-biotinylated 45-bp unmethylated or hemimethylated oligonucleotide substrates and [3H]-AdoMet by liquid scintillation counting method
Sequence of DNA (cytosine-5)-methyltransferase 3A (Q9Y6K1 whole entry, looked up): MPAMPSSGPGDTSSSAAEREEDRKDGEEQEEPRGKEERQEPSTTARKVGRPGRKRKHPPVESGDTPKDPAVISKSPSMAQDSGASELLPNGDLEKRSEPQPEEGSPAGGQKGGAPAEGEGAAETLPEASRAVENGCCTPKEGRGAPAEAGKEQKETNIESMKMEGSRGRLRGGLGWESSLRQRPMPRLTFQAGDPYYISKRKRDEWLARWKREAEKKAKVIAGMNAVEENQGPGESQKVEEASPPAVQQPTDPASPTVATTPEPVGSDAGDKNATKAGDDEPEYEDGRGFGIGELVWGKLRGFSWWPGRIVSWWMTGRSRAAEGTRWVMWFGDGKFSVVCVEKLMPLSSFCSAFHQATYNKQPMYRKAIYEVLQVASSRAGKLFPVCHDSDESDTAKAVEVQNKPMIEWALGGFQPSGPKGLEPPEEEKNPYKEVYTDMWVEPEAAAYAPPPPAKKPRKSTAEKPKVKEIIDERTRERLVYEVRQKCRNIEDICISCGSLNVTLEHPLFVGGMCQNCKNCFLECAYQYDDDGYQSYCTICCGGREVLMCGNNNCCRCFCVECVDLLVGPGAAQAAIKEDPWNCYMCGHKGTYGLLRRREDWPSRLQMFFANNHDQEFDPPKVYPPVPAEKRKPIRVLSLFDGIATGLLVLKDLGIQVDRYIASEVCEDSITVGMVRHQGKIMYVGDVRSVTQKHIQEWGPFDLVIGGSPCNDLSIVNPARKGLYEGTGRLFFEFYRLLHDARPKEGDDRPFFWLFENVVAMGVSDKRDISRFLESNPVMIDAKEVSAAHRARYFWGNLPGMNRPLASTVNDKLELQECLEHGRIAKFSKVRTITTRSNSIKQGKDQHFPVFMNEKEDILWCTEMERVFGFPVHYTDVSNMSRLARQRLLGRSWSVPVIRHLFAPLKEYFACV

[3] = biological target: DNA (cytosine-5)-methyltransferase 1 (Homo sapiens, UniProt P26358); experiment: Inhibition of His6-tagged human recombinant DNMT1 expressed in insect Sf9 cells assessed as reduction in DNA methyltransferase activity using 5'-biotinylated 45-bp unmethylated or hemimethylated oligonucleotide substrates and [3H]-AdoMet by liquid scintillation counting method
Sequence of DNA (cytosine-5)-methyltransferase 1 (P26358 whole entry): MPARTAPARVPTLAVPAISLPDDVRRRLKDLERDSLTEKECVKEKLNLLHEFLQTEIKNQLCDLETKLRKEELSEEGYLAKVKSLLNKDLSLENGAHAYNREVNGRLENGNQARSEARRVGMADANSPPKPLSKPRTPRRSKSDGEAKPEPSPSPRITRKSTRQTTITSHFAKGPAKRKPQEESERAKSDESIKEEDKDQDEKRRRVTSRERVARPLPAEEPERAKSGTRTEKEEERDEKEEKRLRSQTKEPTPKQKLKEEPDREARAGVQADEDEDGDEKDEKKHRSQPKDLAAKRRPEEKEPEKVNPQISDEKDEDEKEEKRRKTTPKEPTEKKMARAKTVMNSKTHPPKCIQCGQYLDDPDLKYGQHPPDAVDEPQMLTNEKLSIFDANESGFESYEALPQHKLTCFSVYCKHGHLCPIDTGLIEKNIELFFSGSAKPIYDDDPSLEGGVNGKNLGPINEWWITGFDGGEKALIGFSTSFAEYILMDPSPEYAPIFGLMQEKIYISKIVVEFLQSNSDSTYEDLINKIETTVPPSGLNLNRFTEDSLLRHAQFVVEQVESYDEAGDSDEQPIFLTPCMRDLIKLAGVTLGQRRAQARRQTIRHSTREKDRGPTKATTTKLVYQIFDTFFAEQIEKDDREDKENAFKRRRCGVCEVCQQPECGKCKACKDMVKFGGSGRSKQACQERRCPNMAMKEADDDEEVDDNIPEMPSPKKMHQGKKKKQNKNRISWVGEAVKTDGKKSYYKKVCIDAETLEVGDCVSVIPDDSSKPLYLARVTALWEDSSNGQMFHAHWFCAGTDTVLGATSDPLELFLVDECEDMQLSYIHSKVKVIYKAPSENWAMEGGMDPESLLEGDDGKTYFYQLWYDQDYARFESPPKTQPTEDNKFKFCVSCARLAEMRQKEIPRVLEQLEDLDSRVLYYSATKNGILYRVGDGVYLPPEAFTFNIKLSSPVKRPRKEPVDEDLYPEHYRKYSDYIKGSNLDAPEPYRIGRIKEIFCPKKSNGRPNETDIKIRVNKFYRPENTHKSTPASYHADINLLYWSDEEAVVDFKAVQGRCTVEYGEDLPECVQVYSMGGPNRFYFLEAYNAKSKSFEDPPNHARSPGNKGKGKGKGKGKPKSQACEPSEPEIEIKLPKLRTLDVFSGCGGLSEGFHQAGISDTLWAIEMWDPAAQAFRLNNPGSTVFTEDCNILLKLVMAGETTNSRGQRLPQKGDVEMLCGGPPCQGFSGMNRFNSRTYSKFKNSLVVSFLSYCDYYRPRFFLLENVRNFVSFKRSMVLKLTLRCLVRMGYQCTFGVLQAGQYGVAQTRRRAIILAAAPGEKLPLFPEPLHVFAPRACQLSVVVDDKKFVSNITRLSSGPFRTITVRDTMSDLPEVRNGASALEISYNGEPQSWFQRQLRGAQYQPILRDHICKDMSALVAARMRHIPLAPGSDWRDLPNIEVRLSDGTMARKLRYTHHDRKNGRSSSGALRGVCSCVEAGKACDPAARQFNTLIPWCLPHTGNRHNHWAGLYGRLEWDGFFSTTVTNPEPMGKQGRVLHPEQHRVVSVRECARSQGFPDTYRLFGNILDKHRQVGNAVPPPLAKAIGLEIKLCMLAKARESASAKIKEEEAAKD

[4] = biological target: DNMT3A2/3L complex (Homo sapiens, UniProt Q9Y6K1); experiment: Inhibition of His6-tagged human recombinant DNMT3A/DNMT3L expressed in insect Sf9 cells assessed as reduction in DNA methyltransferase activity using 5'-biotinylated 45-bp unmethylated or hemimethylated oligonucleotide substrates and [3H]-AdoMet by liquid scintillation counting method
Sequence of DNMT3A2/3L complex (Q9Y6K1 whole entry, looked up, one chain of several): as the sequence (Q9Y6K1 whole entry, looked up) above

[5] = Half life in sc dosed patient with myelodysplastic syndrome; conditions: human, in vivo
[6] = Half life in patient with myelodysplastic syndrome dosed via infusion; assay type: ADME, organism-based; conditions: human, in vivo, iv

| SMILES | IC50 [3] [µM] | IC50 [4] [µM] | further results |
| --- | --- | --- | --- |
| C[C@@H]1O[C@@H](CC(=O)O)CC2=C1C(=O)c1c(O)cccc1C2=O [NANAFROCIN] |  |  | IC50 [1]: 0.5 µM |
| Cc1cc(Nc2ccc(NC(=O)c3ccc(Nc4ccnc5ccccc45)cc3)cc2)nc(N)n1 |  |  | IC50 [1]: 7.5 µM |
| O=[N+]([O-])c1cc(S(=O)(=O)Nc2ccc(O)c3ccccc23)ccc1Cl | 1.2 |  | IC50 [2]: 38 µM |
| O=C1C(Cl)=C(Cl)C(=O)c2ccccc21 [Dichlon] | 1.6 | 0.5 |  |
| CCN(CC)CCNC(=O)c1ccc(N)cc1 [PROCAINAMIDE] | > 500 | > 300 |  |
| O=C(O)[C@H](Cc1c[nH]c2ccccc12)N1C(=O)c2ccccc2C1=O |  | 315 |  |
| O=C(O)[C@H](Cc1c[nH]c2ccccc12)N1C(=O)C=CC1=O | 20 |  |  |
| Nc1ncn([C@@H]2O[C@H](CO)[C@@H](O)[C@H]2O)c(=O)n1 [AZACITIDINE] |  |  | half-life [5]: 41 min |
| O=[N+]([O-])c1ccc(C2=NC[C@H](CN3CCCC3)O2)cc1 | 150 |  |  |
| Nc1ncn([C@H]2C[C@H](O)[C@@H](CO)O2)c(=O)n1 [DECITABINE] |  |  | half-life [6]: 10 min |
| O=c1c(-c2ccc(O)cc2)coc2cc(O)cc(O)c12 [GENISTEIN] | 30 | > 100 |  |
| O=C(O[C@@H]1Cc2c(O)cc(O)cc2O[C@@H]1c1cc(O)c(O)c(O)c1)c1cc(O)c(O)c(O)c1 [EPIGALOCATECHIN GALLATE] | 0.5 |  |  |
| CCN(CC)CCNC(=O)c1ccc(NCCCCCCCCCCCCN2C(=O)c3ccccc3C2=O)cc1 | 4 | 21 |  |

Source: ChEMBL document CHEMBL3414469, “Targeting DNA methylation with small molecules: what's next?” (J Med Chem, 2015)
